Results reported in ChEMBL document CHEMBL4251544, “Identification of imidazo[1,2-b]pyridazine TYK2 pseudokinase ligands as potent and selective allosteric inhibitors of TYK2 signalling” (Medchemcomm, 2017).

Key:
Type in all cases: ADME, organism-based
[1] = Volume of distribution at steady state in Balb/c mouse at 3 mg/kg, iv; conditions: in vivo, read-out: Vdss
[2] = AUClast in Balb/c mouse at 25 mg/kg, po; set-up: dose 25 mg/kg, route oral, time 0 - last; conditions: in vivo
[3] = Cmax in Balb/c mouse at 25 mg/kg, po; set-up: dose 25 mg/kg, route oral; conditions: in vivo
[4] = AUClast in Balb/c mouse at 3 mg/kg, iv; set-up: dose 3 mg/kg, route intravenous, time 0 - last; conditions: in vivo
[5] = Oral bioavailability in Balb/c mouse at 25 mg/kg; conditions: in vivo

Vd [1]: 6.3 L/kg
AUC(0-t) [2]: 5.1 µM·h
Cmax [3]: 2800 nM
AUC(0-t) [4]: 2.3 µM·h
bioavailability [5]: 27%
Structure (SMILES): CNc1cc(Nc2cc(F)cc(F)c2OC)nn2c(C(=O)NC[C@](C)(O)CO)cnc12
